Values after ≈ are worked out from the molar mass of the structure shown. Values joined by “and” are separate entries in the source; they are usually repeats but may differ in a detail not shown here. Identical values can stand only once. Like-named read-outs stand apart in the source and are kept apart here.
How the values were obtained:
[1] = test system: Candida albicans WX-CA009; experiment: Minimum inhibitory concentration (MIC) test against fungi; assay type: cell-based; conditions: ≥50% growth inhibition by eye, three independent experiments
Procedure: (§1) To test the minimum inhibitory concentration (MIC) and minimum effective concentration (MEC) of the drug against fungi.
(§2) Experimental strains: Candida parapsilosis ATCC 22019; Candida albicans ATCC MYA-2876; Candida albicans WX-CA009; Candida glabrata ATCC15126; Candida tropicalis ATCC 750;
(§3) Test medium: RPMI1640 (containing 0.165 M MOPS, pH7.0)
(§4) On the day of the experiment, the compound in the bottle was dissolved in 100% DMSO to a stock solution concentration of 6.24 mg/mL. Then, the mixture was 10-fold diluted with DMSO to 0.624 mg/mL for use.
(§5) A 2-fold gradient dilution of the compound solution (0.624 mg/mL) was performed using DMSO on a 96-microwell plate (V-bottom) to obtain 100× working solutions (wells 1 to 11). 624, 312, 156, 78, 39, 20, 10, 5, 2.5, 1.25, 0.625 μg/mL. 100% DMSO was used as a positive control (well 12). This was the compound stock plate.
(§6) Candida parapsilosis ATCC 22019 and Candida albicans ATCC MYA-2876; Candida albicans WX-CA009; Candida glabrata ATCC15126; Candida tropicalis ATCC 750 frozen at −80° C. were streaked on SDA plates and incubated aerobically in a 35±2° C. incubator for 24 hours.
(§7) On the day of the experiment, for strains Candida parapsilosis ATCC 22019, Candida albicans ATCC MYA-2876; Candida albicans WX-CA009; Candida glabrata ATCC15126; Candida tropicalis ATCC 750 and Cryptococcus neoformans H99 ATCC 208821, the plates were taken out and the clones on the plates were picked, suspended in normal saline, and then the turbidity of the fungal suspension was adjusted to OD600=0.2 using a turbidimeter. The fungal suspension contained about 3.0×10^6 CFU/mL. Then the turbidity-adjusted fungal suspension was diluted with a test medium to a concentration of about 3.0×10^3 CFU/mL. This was the inoculum.
(§8) 2 μL of 100× working solution from the compound stock plate (prepared in 3.1) was transferred to a round-bottomed 96-well plate (containing 98 μL of test medium), and then 100 μL of fungus inoculum (prepared in 3.2) was added to each well to obtain a MIC test plate. Therefore, the final test concentrations of the compounds were 6.24, 3.12, 1.56, 0.78, 0.39, 0.20, 0.10, 0.05, 0.025, 0.0125, 0.006 μg/mL. 1% DMSO was used as a growth control.
(§9) For strains Candida parapsilosis ATCC 22019; Candida albicans ATCC MYA-2876; Candida albicans WX-CA009; Candida glabrata ATCC15126; Candida tropicalis ATCC 750, all test plates were incubated aerobically in a 35±2° C. incubator for 24 hours.
(§10) After incubation, according to the criteria in Table 1 below, the test plate was observed by eye or microscope to determine the MIC (g/mL) and MEC (g/mL) of the test compound against yeast and mold.

[2] = test system: Candida parapsilosis ATCC 22019; experiment: as above; assay type: cell-based; conditions: ≥50% growth inhibition by eye, three independent experiments (1st, 2nd, 3rd time)
Procedure: as §1, §2, §3, §4, §5, §6, §7, §8, §9, §10

[3] = test system: Candida glabrata ATCC15126; experiment: as above; assay type: cell-based; conditions: ≥50% growth inhibition by eye, three independent experiments
Procedure: as §1, §2, §3, §4, §5, §6, §7, §8, §9, §10

[4] = test system: Candida albicans ATCC MYA-2876; experiment: as above; assay type: cell-based; conditions: ≥50% growth inhibition by eye, three independent experiments
Procedure: as §1, §2, §3, §4, §5, §6, §7, §8, §9, §10

[5] = test system: Aspergillus flavus ATCC MYA-1004; experiment: Minimum effective concentration (MEC) test against fungi; assay type: cell-based; conditions: change of hyphae morphology by microscope, 48 hours, three independent experiments
Procedure: as §1
(§11) Aspergillus fumigatus ATCC-MYA-4609; Aspergillus flavus ATCC MYA-1004
as §3, §4, §5
(§12) Aspergillus fumigatus ATCC-MYA-4609; Aspergillus flavus ATCC MYA-1004 frozen at −80° C. were streaked on SDA plates and incubated aerobically in a 30±2° C. incubator for 6 days.
(§13) For strains Aspergillus fumigatus ATCC MYA-4609; Aspergillus flavus ATCC MYA-1004, after taking out the plate, 3 mL of 0.9% normal saline containing 0.1% Tween20 was added to the plate and the spores were gently collected. The spores were counted with a hemocytometer and the spore suspension was adjusted to about 5×10^6 spores/mL. Then the spore suspension was diluted to 0.8 to 1×10^5 spores/mL with a test medium.
as §8
(§14) For mold strains Aspergillus fumigatus ATCC-MYA-4609 and Aspergillus flavus ATCC MYA-1004, all test plates were incubated aerobically in a 35±° C. incubator for 48 hours.
as §10

[6] = test system: Aspergillus fumigatus ATCC-MYA-4609; experiment: as above; assay type: cell-based; conditions: change of hyphae morphology by microscope, 48 hours, three independent experiments
Procedure: as §1, §11, §3, §4, §5, §12, §13, §8, §14, §10

[7] = test system: Cryptococcus neoformans H99 ATCC 208821; experiment: Minimum inhibitory concentration (MIC) test against fungi; assay type: cell-based; conditions: ≥50% growth inhibition by eye, three independent experiments
Procedure: as §1
Cryptococcus neoformans H99 ATCC 208821;
as §3, §4, §5
Cryptococcus neoformans H99 ATCC 208821 frozen at −80° C. was streaked on SDA plates and incubated aerobically in a 35±2° C. incubator for 48 hours.
as §7, §8
For Cryptococcus neoformans H99 ATCC 208821, all test plates were incubated aerobically in a 35±2° C. incubator for 72 hours.
as §10

[8] = test system: Candida tropicalis ATCC 750; experiment: as above; assay type: cell-based; conditions: Candida tropicalis, ATCC750, 24 h, ≥50% growth inhibition by eye, three independent experiments, read-out: MIC
Procedure: as §1, §2, §3, §4, §5, §6, §7, §8, §9, §10

[9] = test system: Candida albicans ATCC MYA-2876; experiment: Mouse candidemia efficacy model; assay type: in vivo; conditions: female CD-1 mice infected with Candida albicans ATCC MYA-2876; 26 mg/kg intraperitoneally once a day for 7 days after 50 mg/kg ABT orally; n=5
Procedure: Experimental animals: female CD-1 mice, 7 weeks old, 27 to 29 g, n=5 or 8;
microbial pathogen: Candida albicans ATCC MYA-2876;
inoculation level and route: 2.0 to 4.0E+05 CFU/mouse, infected by tail vein injection;
treatment: The treatment started at 1 hour after infection. Firstly, ABT was administered orally, and 2 hours later, the test compound was injected intraperitoneally once a day for 7 days in total, with an administration volume of 10 mL/kg.
Observation indicators: Changes in body weight and mortality within 7 days after infection in each group of mice.

[10] = Mouse pharmacokinetic evaluation, intraperitoneal injection after oral ABT; assay type: in vivo; conditions: ip, female CD-1 mice, ABT 50 mg/kg orally 2 hours before, plasma; for AUC: read-out: Concentration Integral AUC; for Cmax: read-out: Peak Concentration Cmax; for Tmax: read-out: Peak Time Tmax
Excerpt: Experimental Purpose: Using female CD-1 mice as test animals, LC/MS/MS was used to measure the plasma drug concentration at different times after intraperitoneal injection of the test compound. To study the pharmacokinetic behavior of the test compound in mice and evaluate its pharmacokinetic characteristics. Drug preparation: An appropriate amount of sample was weighed and then prepared into a clear or suspended solution. Administration scheme: Two healthy female CD-1 mice were taken, purchased from Beijing Vital River Laboratory Animal Technology Co., Ltd., and given a normal diet. The drug was administered through intraperitoneal injection. Operational steps: 2 hours before administration, 1-aminobenzotriazole (ABT) was orally administered (50 mg/kg, 5 mg/mL in normal saline), and after animal administration, about 30 μL of blood was collected at 0.083, 0.25, 0.5, 1, 2, 4, 8, and 24 hours, and placed in commercially available anticoagulant tubes pre-added with EDTA-K2. The tubes were centrifuged for 10 minutes to separate the plasma, and the plasma was stored at −60° C. The content of the target compound in the plasma sample was determined by LC/MS/MS method, and the experimental results are shown in Table 3.

[11] = Pharmacokinetic evaluation in dogs (IV, PO); assay type: in vivo, beagle dogs; conditions: dog plasma
Excerpt: (§15) Experimental Purpose: To evaluate the druggability of the compounds by measuring its pharmacokinetic properties in different animal species.
(§16) Experimental materials: CD-1 mice, Sprague-Dawley strain rats, beagle dogs, and crab-eating macaques.
(§17) Drug preparation: An appropriate amount of sample was weighed and then prepared into a clear or suspended solution.
(§18) Experimental procedure: The animal pharmacokinetic characteristics after intravenous injection and oral administration of the compound were tested using a standard protocol. The candidate compound was prepared as a clear solution (for intravenous injection) or a homogeneous suspension (for oral administration) during the experiment and administered to the animals as a single dose. Whole blood samples were collected at 0.083, 0.25, 0.5, 1, 2, 4, 8, and 24 hours, centrifuged at 3200 g for 10 minutes to separate the supernatant to obtain plasma samples. The plasma concentration was quantitatively analyzed by LC-MS/MS analysis method and pharmacokinetic parameters were calculated, such as peak concentration, peak time, clearance rate, half-life, area under the drug-time curve, etc.

[12] = Pharmacokinetic evaluation in rats (IV, PO); assay type: in vivo, Sprague-Dawley strain rats; conditions: rat plasma
Excerpt: as §15, §16, §17, §18

in vivo = experiment: in vivo; design: species or system crab-eating macaques
Excerpt: as §15, §16, §17, §18

[13] = Candida albicans, WXCA009, 24 h, read-out: MIC
[14] = Lodderomyces parapsilosis, ATCC22019, 24 h, read-out: MIC
[15] = Nakaseomyces glabratus, ATCC15126, 24 h, read-out: MIC
[16] = Candida albicans, 24 h, read-out: MIC
[17] = Cryptococcus neoformans, ATCC208821, 72 h, read-out: MIC

Nc1ccc(C#CCc2ccc(COc3ccccn3)cc2)c(F)n1 [WX005]
MIC [1, 13]: 0.1 mg/L (≈ 0.3 µM) | MIC ([1]; 24 hours): 0.05 mg/L (≈ 0.15 µM) | MIC [2, 14]: 0.2 mg/L (≈ 0.6 µM) | MIC ([2]; 24 hours): 0.1 mg/L (≈ 0.3 µM) | MIC [3, 15]: 1.56 mg/L (≈ 4.68 µM) | MIC [4, 16]: 0.05 mg/L (≈ 0.15 µM) | MIC ([4]; 24 hours): 0.1 mg/L (≈ 0.3 µM) | MEC [5]: 3.12 µg/mL | MEC [6]: 0.39 µg/mL and 0.2 µg/mL | MIC [7, 17]: > 6.24 mg/L | MIC ([7]; 72 hours): 6.24 mg/L (≈ 18.7 µM)

Nc1ccc(C#CCc2ccc(Oc3cccc(F)n3)cc2)cn1 [WX009]
MIC [1, 13]: 0.05 mg/L (≈ 0.157 µM) | MIC [2, 14]: 0.05 mg/L (≈ 0.157 µM) | MIC [3, 15]: 0.78 mg/L (≈ 2.44 µM) | MIC [8]: 0.1 mg/L (≈ 0.313 µM) | MIC [4, 16]: 0.05 mg/L (≈ 0.157 µM) | MEC [5]: 0.39 µg/mL | MEC [6]: 0.39 µg/mL | MIC [7, 17]: 0.025 mg/L (≈ 0.0783 µM) | protection from death caused by candidemia [9]: completely protect | AUC ([10]; 6 mpk): 67 µM·h | Cmax ([10]; 6 mpk): 11.4 µM | Tmax ([10]; 6 mpk): 0.75 h

Nc1ncccc1C#CCc1ccc(COc2ccccn2)cc1 [WX003]
MIC [1, 13]: 0.0125 mg/L (≈ 0.0396 µM) | MIC ([1]; 24 hours): 0.025 mg/L (≈ 0.0793 µM) | MIC [2, 14]: 0.025 mg/L (≈ 0.0793 µM) | MIC [3, 15]: 0.39 mg/L (≈ 1.24 µM) | MIC ([3]; 24 hours): 0.78 mg/L (≈ 2.47 µM) | MIC [8]: 0.0125 mg/L (≈ 0.0396 µM) | MEC [5]: 0.2 µg/mL and 0.39 µg/mL | MEC [6]: 0.1 µg/mL and 0.2 µg/mL | MIC [7, 17]: 0.39 mg/L (≈ 1.24 µM) | AUC ([10]; 26 mpk): 27 µM·h | Cmax ([10]; 26 mpk): 13.5 µM | Tmax ([10]; 26 mpk): 0.5 h

Cc1cc(C#CCc2ccc(COc3ccccn3)cc2)cnc1N [WX007]
MIC [1, 13]: 0.05 mg/L (≈ 0.152 µM) | MIC [2, 14]: 0.1 mg/L (≈ 0.304 µM) | MIC [3, 15]: 0.78 mg/L (≈ 2.37 µM) | MIC [8]: 0.05 mg/L (≈ 0.152 µM) | MIC [4, 16]: 0.1 mg/L (≈ 0.304 µM) | MEC [5]: 0.39 µg/mL | MEC [6]: 0.39 µg/mL | MIC [7, 17]: 1.56 mg/L (≈ 4.74 µM) | AUC ([10]; 6 mpk): 64 µM·h | Cmax ([10]; 6 mpk): 4.7 µM | Tmax ([10]; 6 mpk): 1.5 h

Nc1ncc(C#CCc2ccc(COc3ccccn3)cc2)cc1F [WX008]
MIC [1, 13]: 0.05 mg/L (≈ 0.15 µM) | MIC [2, 14]: 0.05 mg/L (≈ 0.15 µM) | MIC [3, 15]: 0.78 mg/L (≈ 2.34 µM) | MIC [8]: 0.05 mg/L (≈ 0.15 µM) | MIC [4, 16]: 0.05 mg/L (≈ 0.15 µM) | MEC [5]: 0.39 µg/mL | MEC [6]: 1.56 µg/mL | MIC [7, 17]: 3.12 mg/L (≈ 9.36 µM) | AUC ([10]; 6 mpk): 75 µM·h | Cmax ([10]; 6 mpk): 4.7 µM | Tmax ([10]; 6 mpk): 4.3 h

Nc1ccc(C#CCc2ccc(COc3ccccn3)cc2)c[n+]1COP(=O)(O)O [WX013]
time to complete decomposition into the parent drug WX004 [11]: ≤ 0.5 h | time to complete decomposition into the parent drug WX004 [12]: ≤ 0.5 h | time to complete decomposition into the parent drug WX004 (in vivo; crab-eating macaque, crab-eating macaque (monkey)): ≤ 0.5 h | F % (in vivo; monkey, po, 13.5 mg/kg): 89%

From patent publication US12492169B2, “Aminopyridine compound and application thereof” (priority 2020, dated 2025)
